Measured values reported in patent publication US9107914B2, “Beta-carbolines for use in the treatment of hearing loss and vertigo” (AudioCure Pharma GmbH, priority 2009, dated 2015).

Experiments:
[1] = tested on: transcription factor CREB in SH-SY5Y cells; assay: Dual luciferase method for intracellular cascades (FIG. 5); type: cell-based, human; settings: dose-dependent activating effect, 48 h incubation, three independent experiments
Text: The effects of β-carbolines on several intracellular cascades were investigated. Of them it is known, that at their respective ends, several transcription factors are formed in the cell nucleus, that in turn activate the transcription of a group of further genes. The dual luciferase method was used. One luciferase served as transfection control, whereas the second is coupled to the appropriate specific binding sequence of the DNA.

[2] = tested on: BDNF (brain-derived neurotrophic factor) in human SH-SY5Y cells; assay: Relative gene expression of BDNF (FIG. 4A); type: cell-based; settings: SH-SY5Y cells
Description: (§1) Next, it was investigated, whether the substances could induce the formation of nerve growth factors in human SH-SY5Y neuroblastoma cell. After 2 and 14 days the cells were harvested and the expression of the target gene and the house keeping gene was determined via reverse transcriptase-PCR.

inner ear of guinea pigs = assay: Prophylaxis of hearing damages in an animal model, gentamicin and etacrynic acid (Example 30); type: in vivo; settings: infusion to the round window recess, gentamicin and etacrynic acid i.v.
Description: A solution containing β-carboline was infused continuously into the recess in front of the membrane of the round window of guinea pigs by a osmotic mini-pump for three days. The following β-carbolines were tested individually in this experiment: 9-methyl-β-carboline, compounds XI, XII, XVIII, XIX as well as C to L.
Then, a standard dose of gentamicin and etacrynic acid was injected intravenously into guinea pigs. Gentamicin and etacrynic acid damage the inner ear. Typically, they are used as toxins to induce deafness in such studies. The infusion was continued for further two days. Then, the electrophysiological activity of the nerve cells of the brain stem, which transmit the impulses of the inner ear, was deduced after acoustic irradiation of the ear with […]. The non-β-carboline-treated ear served as intraindividual control (Prieskorn D M, Miller J M. Technical report: chronic and acute intracochlear infusion in rodents. Hear Res, 2000; 140(1-2): 212-215). Moreover, animals were infused with 9-Me-BC only but not with gentamicin as a further control.
The measured electrophysiological activity of the nerve cells of the acoustic nerve (hearing threshold) served as a measure of the degree of therapeutic effect of the used β-carbolines on the inner ear. As can be learned from Table 3, the used β-carbolines show the increase in electrophysiological activity of the nerve cells of the acoustic nerve. It can be concluded from this that β-carbolines are useful for the treatment of hearing damages, vertigo, and vestibular disorders.

[3] = tested on: human SH-SY5Y neuroblastoma cells; assay: Differentiation model / neurite length in human neuroblastoma cells; type: cell-based; settings: 14 days; for neurite length: vs control group, P<0.001; for differentiation / neurite length in comparison to 9-methyl-β-carboline: SH-SY5Y cells; for differentiation / neurite length in comparison to 9-methyl-β-carboline: key: +: marginally better than 9-methyl-β-carboline; ±: equal to 9-methyl-β-carboline; −: marginally worse than 9-methyl-β-carboline
Text: Human neuroblastoma cells were utilised for this model. These are permanent cells, which are present as an indifferent type in culture. They can be activated to differentiate, i.e. transformation into neuronal cells, by addition of specific substances such as retinoic acid, […] (BDNF) or activator of the enzyme, protein kinase C to the culture medium. We used this cell system to analyse whether beta-carbolines can transform the indifferent cells into the neuronal type. Criteria were: less proliferation (less cells per field of view); smaller cell bodies (transformation from the indifferent type to the neuronal type); cytodendrites (neuritis), which provide connections to neighbouring cells or clusters of neighbouring cells.
Human SH-SY5Y neuroblastoma cells were incubated in culture for 14 days with solvent (Ko) or test substance. A shift of the graph to the right side for a test substance, pointed to an increase of neurite length, when compared to the graph for the control substance. Statistical differences between the treated groups were calculated with the Tukey's Multiple Comparison-Test.
Shown are the cumulative frequency distributions of neurite lengths, determined in at least 20 randomly selected visual fields (each 640.000 μm^2) in three independent experiments. A steep rise pointed to a predominance of short neuritis, wherein for example in control cells, a less steep rise signified a greater number of longer neurites. The horizontal maximum indicated the maximal neurite length of the respective treatment group. […] The effects are dose- and substance-dependent: 1-methyl-β-carboline <6-methoxy-9-methyl-β-carboline <9-methyl-β-carboline <9-fluorethyl-β-carboline).
The effects of the other inventive β-carbolines (compounds A-L and VI-XX) on neurite length were determined, as described above, in human SH-SY5Y neuroblastoma cells after 14 days.

[4] = tested on: BDNF, GDNF, NGF and NPY in human SH-SY5Y neuroblastoma cells; assay: Gene expression of growth factors by reverse transcriptase-PCR (Table 2 summary); type: cell-based; settings: after 2 and 14 days; note: key: +: marginally better than 9-methyl-β-carboline; ±: equal to 9-methyl-β-carboline; −: marginally worse than 9-methyl-β-carboline
Description: as §1
The effects of the other inventive β-carbolines (compounds A-L and VI-XX) on the gene expression of BDNF, GDNF, NGF and NPY were determined, as described above, in human SH-SY5Y neuroblastoma cells after 2 and 14 days.

[5] = tested on: cells of the spiral ganglion of the inner ear; settings: 48 hours of culture; cited from earlier work

| Molecule | formation of the transcription factor CREB relative to the level in control cells [1] | BDNF transcription [2] | effect on the inner ear (electrophysiological activity, hearing threshold) in comparison to 9-methyl-β-carboline (inner ear of guinea pigs) | neurite length ([3]; 50 μM) | differentiation / neurite length in comparison to 9-methyl-β-carboline [3] | gene expression of BDNF, GDNF, NGF and NPY in comparison to 9-methyl-β-carboline [4] | neurite length ([3]; 110 μM) | survival of cells of the spiral ganglion [5] |
| --- | --- | --- | --- | --- | --- | --- | --- | --- |
| COc1ccc2c(c1)c1ccncc1n2C [9-Me-6-MeO—BC (XVIII), 6-methoxy-9-methyl-9H-β-carboline] | up to ten times | enormous, dose-dependent increase | ± | increase in neurite length | + |  |  |  |
| C/C=C/C(C)=C\n1c2ccccc2c2ccnc(Cl)c21 [compound (IX)] |  |  | − |  | − | − |  |  |
| COc1ccc2c(c1)c1ccncc1n2C(C)C [compound (VII)] |  |  | − |  | − | ± |  |  |
| COc1ccc2c(c1)c1ccncc1n2C1CC1 [compound (XI)] |  |  | ± |  | + | ± |  |  |
| Cn1c2ccc(OC(F)(F)F)cc2c2ccncc21 [compound (XII)] |  |  | + |  | + | + |  |  |
| CN(C)c1ccc2c(c1)c1ccncc1n2C [compound (XIII)] |  |  | ± |  | ± | ± |  |  |
| COc1nccc2c3cc(Cl)ccc3n(C)c12 [compound (XIV)] |  |  | − |  | − | − |  |  |
| Cc1ccc2c(c1)c1ccnc(C(C)C)c1n2C [compound (XVI)] |  |  | − |  | − | − |  |  |
| Cc1ccc2c(c1)c1ccncc1n2C [compound (XVII)] |  |  | − |  | ± | ± |  |  |
| C=CCn1c2ccccc2c2ccncc21 [compound (XX)] |  |  | ± |  | − | ± |  |  |
| CCCn1c2ccccc2c2ccncc21 [compound A] |  |  | − |  | − | − |  |  |
| CCCCCCn1c2ccccc2c2ccncc21 [compound B] |  |  | − |  | − | − |  |  |
| CCCCCCCCCCCCCCn1c2ccccc2c2ccncc21 [compound C] |  |  | + |  | ± | ± |  |  |
| C=CCn1c2ccccc2c2ccncc21 [compound D] |  |  | − |  | + | + |  |  |
| CC(C)Cn1c2ccccc2c2ccncc21 [compound E] |  |  | − |  | + | ± |  |  |
| CCn1c2ccccc2c2ccncc21 [compound F] |  |  | ± |  | ± | ± |  |  |
| COCCn1c2ccccc2c2ccncc21 [compound G] |  |  | + |  | ± | ± |  |  |
| C#CCn1c2ccccc2c2ccncc21 [compound H] |  |  | + |  | + | ± |  |  |
| c1ccc(Cn2c3ccccc3c3ccncc32)cc1 [compound I] |  |  | − |  | − | − |  |  |
| COC(=O)CCn1c2ccccc2c2ccncc21 [compound J] |  |  | ± |  | ± | − |  |  |
| CC(C)C(C)Cn1c2ccccc2c2ccncc21 (centres unmarked) [compound K] |  |  | ± |  | ± | − |  |  |
| CN(C)CCn1c2ccccc2c2ccncc21 [compound L] |  |  | + |  | + | ± |  |  |
| Cc1nccc2c1[nH]c1ccccc12 [harman, 1-methyl-β-carboline, reference compound] |  |  | − |  | − | − | increase in neurite length |  |
| BDNF: brain-derived neurotrophic factor (protein, UniProt P23560 19-247, looked up) Neurotrophic factor BDNF …: APMKEANIRGQGGLAYPGVRTHGTLESVNGPKAGSRGLTSLADTFEHVIEELLDEDQKVRPNEENNKDADLYTSRVMLSSQVPLEPPLLFLLEEYKNYLDAANMSMRVRRHSDPARRGELSVCDSISEWVTAADKKTAVDMSGGTVTVLEKVPVSKGQLKQYFYETKCNPMGYTKEGCRGIDKRHWNSQCRTTQSYVRALTMDSKKRIGWRFIRIDTSCVCTLTIKRGR |  |  |  |  |  |  |  | neuroprotective properties |
| GDNF: Glial cell line derived neurotrophic factor (protein, UniProt P39905 78-211, looked up) Glial cell line-derived …: SPDKQMAVLPRRERNRQAAAANPENSRGKGRRGQRGKNRGCVLTAIHLNVTDLGLGYETKEELIFRYCSGSCDAAETTYDKILKNLSRNRRLVSDKVGQACCRPIAFDDDLSFLDDNLVYHILRKHSAKRCGCI |  |  |  |  |  |  |  | neuroprotective properties |
